BindingDB's records for doi:10.1021/cb800306y (Stony Brook University, 2009)
pKi: −log10 of the molar value.

Legend:
[1] = target: T1, Enoyl-[acyl-carrier-protein] reductase [NADH] (Francisella tularensis subsp. novicida (strain U112), UniProt A0Q794); assay: Enzyme Inhibition Assay; conditions: pH 8; 25 °C
T1 sequence (A0Q794 whole entry): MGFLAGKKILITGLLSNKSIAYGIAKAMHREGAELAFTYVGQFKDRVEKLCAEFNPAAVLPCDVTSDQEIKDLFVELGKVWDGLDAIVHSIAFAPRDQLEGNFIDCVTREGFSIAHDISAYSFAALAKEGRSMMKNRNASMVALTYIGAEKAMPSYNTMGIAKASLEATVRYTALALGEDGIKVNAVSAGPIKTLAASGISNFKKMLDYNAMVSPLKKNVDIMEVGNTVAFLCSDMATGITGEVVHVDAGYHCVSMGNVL
Text: Inhibition constant binding to E-NADH

[2] = target: T1, Enoyl-[acyl-carrier-protein] reductase [NADH]; assay: Enzyme Inhibition Assay; conditions: pH 8; 25 °C; remark: listed apart in the source
Text: Inhibition constant binding to E-NAD+

SMILES | pKi [1] | pKi [2]
Oc1cc(Cl)ccc1Oc1ccc(Cl)cc1Cl | 5.30 | 10.29
Cc1ccc(Oc2ccccc2)c(O)c1 [PT53] | 6.61 | 8.72
CCc1ccc(Oc2ccccc2)c(O)c1 [PT01] | 6.51 | 8.68
CCCc1ccc(Oc2ccccc2)c(O)c1 [PT02] | 6.16 | 9.36
CCCCCCCCc1ccc(Oc2ccccc2)c(O)c1 [5-Octyl-2-phenoxy-phenol] | 6.72 | 7.63
CCCCCCc1ccc(Oc2ccccc2)c(O)c1 [5-hexyl-2-phenoxyphenol] | 6.48 | 8.57
Oc1cc(Cl)ccc1Oc1ccccc1 [PT52] | 6.51 | 8.72
Oc1cc(F)ccc1Oc1ccccc1 [PT55] | – | 6.54
